Reference: ChEMBL document CHEMBL1136840 (Bioorg Med Chem Lett, 2009)

Biological target: T1, Carbonic anhydrase 15 (Mus musculus, UniProt Q99N23)
T1 sequence (Q99N23 whole entry): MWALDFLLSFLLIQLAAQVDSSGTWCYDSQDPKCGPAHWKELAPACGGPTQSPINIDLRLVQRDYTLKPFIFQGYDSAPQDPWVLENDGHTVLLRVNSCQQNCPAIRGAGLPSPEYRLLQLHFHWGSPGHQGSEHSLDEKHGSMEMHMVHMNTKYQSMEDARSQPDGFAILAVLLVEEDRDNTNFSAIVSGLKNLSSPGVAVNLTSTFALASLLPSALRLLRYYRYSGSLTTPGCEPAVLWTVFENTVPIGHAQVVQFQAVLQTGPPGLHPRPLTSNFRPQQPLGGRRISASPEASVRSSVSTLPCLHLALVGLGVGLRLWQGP

`NS(N)(=O)=O` [SULFAMIDE] showed a Ki of 37.4 µM.
